Reference: US9980936B2, “BH4 antagonists and methods related thereto” (Emory University, priority 2014, dated 2018)
Where two headings read alike, the source gives them in different places.

Experiments:
[1] = system: human lung cancer cell lines; assay: sensitivity of lung cancer cell lines versus ABT-737; assay type: cell-based
[2] = system: H460 or DMS53 cells expressing Bcl2 shRNA transfected with WT Bcl2; assay: rescue of Bcl2-silenced cells with exogenous WT Bcl2; assay type: cell-based; settings: 72 h
Excerpt: Whether expression of exogenous Bcl2 can restore the sensitivity of Bcl2-silenced lung cancer cells to BDA-2 and whether the BDA-2/BH4 binding is important for such effect was examined. WT and BDA-2 binding deficient D10A/N11A/R12A/E13A (AAAA) Bcl2 mutant cDNA in pCIneo or vector-only control were transfected into H460 or DMS53 cells expressing Bcl2 shRNA. It has been reported that if the shRNA is directed to the 3′ UTR or 5′ UTR of the gene, the effect of the shRNA1 can be rescued by ectopically expressing the protein using the wild-type or mutant cDNA. Because Bcl2 shRNA1 targets the 5′UTR of endogenous Bcl2, the silencing effect of shRNA1 on Bcl2 expression could be rescued by transfection of exogenous WT or AAAA Bcl2 mutant. After transfection, cells were treated with BDA-2 or the BH3 mimetic ABT-199 at the indicated concentrations for 72 h. […] The apoptotic effect of BDA-2 on lung cancer cells requires its BH4 binding.

[3] = system: H1299 cells or isolated mitochondria; assay: H1299 cells or isolated mitochondria expressing WT, ΔBH3 Bcl2 or vector: IP and Cyt c release; assay type: cell-based
Procedure: (§1) To further test whether the BH3 domain of Bcl2 is important for BDA-366 activation of Bax, purified recombinant WT and the BH3 deletion (ΔBH3) mutant Bcl2 proteins were incubated with purified Bax protein in the absence or presence of BDA-366, followed by IP with 6A7 antibody. […] To test this at the cellular or mitochondrial level, WT, ΔBH3 Bcl2 mutant and empty vector (pCIneo) were transfected into H1299 cells that express undetectable levels of endogenous Bcl2 but high levels of endogenous Bax. Cells or isolated mitochondria from these cells were treated with BDA-2, followed by IP with Bcl2 BH3 or 6A7 antibody, respectively.
To further test whether BDA-366 induces Cyt c release from mitochondria in a Bcl2 dependent fashion, mitochondria were isolated from H1299 cells expressing WT, ΔBH3 mutant Bcl2 or vector-only control. The isolated mitochondria were treated with BDA-366 (1 μM) for 30 min at 30° C. After centrifugation, Cyt c in the supernatant (i.e. Cyt c release) was analyzed by Western blot.

[4] = target: purified, human Bcl2 protein (Homo sapiens, UniProt P10415); assay: competition fluorescence polarization assay (FITC-QDCMWSGFSA peptide); assay type: binding; settings: 3 nM peptide, 6 nM Bcl2
Sequence of purified, human Bcl2 protein (P10415 whole entry): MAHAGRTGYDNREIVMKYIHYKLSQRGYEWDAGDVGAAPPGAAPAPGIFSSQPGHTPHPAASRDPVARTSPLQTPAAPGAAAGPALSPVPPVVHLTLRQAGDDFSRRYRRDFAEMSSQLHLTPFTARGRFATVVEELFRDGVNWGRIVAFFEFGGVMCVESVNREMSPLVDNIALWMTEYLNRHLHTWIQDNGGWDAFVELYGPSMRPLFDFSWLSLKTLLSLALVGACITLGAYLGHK
Procedure: Thus, the change of mP reflects the interaction between the fluorescent-labeled peptide and the Bcl2 protein. Data (i.e. mP value) can be imported into Prism 3.0 to determine the dissociation constant (Kd) and the binding range for each peptide.
This interaction between Bcl2 and the peptide forms the basis for the fluorescence polarization assay.
The plate was mixed on a shaker for 1 min and incubated at room temperature for an additional 15 min. The polarization, as defined as mP units, was measured at room temperature with a fluorescence microplate reader (Wallace, Calif.). A negative control (DMSO, 3 nM peptide and assay buffer) and a positive control (DMSO, 3 nM peptide, 6 nM Bcl2 and assay buffer) were used to determine the range of the assay.

Bfl-1/A1 = Bfl-1/A1 (Homo sapiens, UniProt Q16548); assay: binding to other Bcl2 family members
Sequence of Bfl-1/A1 (Q16548 whole entry): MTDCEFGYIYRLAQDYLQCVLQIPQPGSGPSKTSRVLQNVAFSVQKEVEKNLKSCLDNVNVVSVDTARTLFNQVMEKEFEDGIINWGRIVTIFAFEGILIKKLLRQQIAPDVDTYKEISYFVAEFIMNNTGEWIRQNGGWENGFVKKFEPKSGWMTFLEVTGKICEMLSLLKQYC

SCLC cell lines = assay: growth of SCLC cell lines; assay type: cell-based
[5] = system: wild type (WT) and Bax knockout (Bax−/−) MEF cells; assay: apoptotic effect on WT and Bax knockout MEF cells; assay type: cell-based
Procedure: (§2) To further determine whether Bax is important for BDA-2 induction of apoptosis, the apoptotic effect of BDA-366 was tested on wild type (WT) and Bax knockout (Bax−/−) MEF cells. […] To test whether BDA-2/BH4 binding affects the IP3R/Bcl2 interaction and Ca2+ release, H460 cells were treated with increasing concentrations of BDA-366 for 24 h.

H460 cells [6] = assay: SRB cell growth assay, combination with mTOR inhibitor; assay type: cell-based, human; settings: BDA-366 100 nM, RAD001 1 nM, alone or in combination, 72 hr
Procedure: Cell growth was analyzed by sulforhodamine B (SRB) colorimetric assay.

H460 cells [7] = assay: IP3R/Bcl2 interaction and Ca2+ release; assay type: cell-based; settings: increasing concentrations, 24 h
Procedure: as §2

[8] = system: normal small airway epithelial cell line (SAEC); assay: cell growth (SRB) and apoptosis (Annexin V/PI), normal cells; assay type: cell-based
[9] = system: Bcl2 ΔBH1 deletion mutant protein; assay: fluorescence polarization assay with fluorescent Bak peptide; assay type: binding
Procedure: (§3) Purified recombinant WT and a panel of Bcl2 BH domain deletion mutant proteins (i.e. ΔBH1, ΔBH2, ΔBH3 and ΔBH4) were commercially obtained from ProteinX Lab. To directly measure BDA-2/Bcl2 binding, a fluorescence polarization assay with a fluorescent Bak peptide (5′-[…]) was performed.

[10] = system: Bcl2 ΔBH3 deletion mutant protein; assay: as above; assay type: binding
Procedure: as §3

[11] = system: BH4 domain deficient Bcl2 mutant protein (ΔBH4); assay: as above; assay type: binding
Procedure: as §3

Bcl2 = Bcl2 (Homo sapiens, UniProt P10415); assay: as above; assay type: binding
Sequence of Bcl2 (P10415 whole entry): as the sequence (P10415 whole entry) above
Procedure: as §3

[12] = system: Bcl2 ΔBH2 deletion mutant protein; assay: as above; assay type: binding
Procedure: as §3

[13] = system: D10A, N11A, R12A, E13A, M16A, K17A, H20A and D31A Bcl2 mutants; assay: competitive fluorescence polarization, BH4 single-site mutants; assay type: binding; settings: single mutation at each individual residue
Excerpt: A panel of Bcl2 mutants were generated within the BH4 domain at the specific residues that were identified by the initial docking simulations, including D10A, N11A, R12A, E13A, M16A, K17A, H20A and D31A Bcl2 mutants. A compound Bcl2 mutant D10A/N11A/R12A/E13A (AAAA) was created. Recombinant proteins of these mutants were generated for BDA-2/Bcl2 binding analysis using a competitive fluorescence polarization. […] Second, WT and all Bcl2 mutants were exogenously overexpressed in H1299 cells that express undetectable levels of endogenous Bcl2.

H460 cells [14] = assay: H460 cells: Bcl2/BH3 immunofluorescence, Bcl2 expression, mitochondrial dysfunction; assay type: cell-based
purified recombinant Bax = assay: cell-free Bax activation (IP using 6A7 Bax antibody); assay type: biochemical
Procedure: BDA-366-induced Bcl2 conformational change was also confirmed by immunofluorescence using a Bcl2/BH3-domain specific antibody. […] To test this possibility, a 6A7 Bax antibody that only recognizes the conformationally changed, active, form of Bax was employed. Purified Bcl2 was treated with BDA-366 in lysis buffer for 1 h. The mixture of Bcl2/BDA-2 was then incubated with purified recombinant Bax for another 2 h, followed by IP using 6A7 antibody.
as §1

CCN(CC)CC(O)CNc1ccc(NCC2CO2)c2c1C(=O)c1ccccc1C2=O (stereo not shown) [BDA-366, 1-((3-(diethylamino)-2-hydroxypropyl)amino)-4-((oxiran-2-ylmethyl)amino)anthracene-9,10-dione]
sensitivity of most human lung cancer cell lines relative to ABT-737 [1]: more sensitive to BDA2 than ABT-737 | sensitivity of cells after expression of exogenous WT Bcl2 [2]: restored sensitivity | Cyt c release from isolated mitochondria ([3]; WT Bcl2, 1 μM, 30 min at 30° C.): induced Cyt c release | Bcl2 conformational change and Bax activation ([3]; cells or isolated mitochondria containing WT Bcl2): induced Bcl2 conformational change in association with Bax activation | Bcl2 conformational change and Bax activation ([3]; ΔBH3 Bcl2 mutant or vector-only control): not | Ki [4]: 0.93 ± 0.08 nM | binding to Bfl-1/A1 (Bfl-1/A1): failed to bind | binding to Bfl-1/A1 (Bfl-1/A1; listed as BDA-2): did not bind | growth of SCLC cell lines (SCLC cell lines): efficiently suppressed growth of SCLC cell lines | resistance of Bax deficient MEF cells compared to WT MEF cells [5]: significantly resistant | cell growth inhibition (H460 cells [6]): partially inhibited lung cancer cell growth | Bcl2/IP3R binding (H460 cells [7]): reduced Bcl2/IP3R binding | Ca2+ release (H460 cells [7]): increased Ca2+ release | sensitivity of normal cells [8]: less sensitive | binding after deletion of BH1 [9]: did not significantly affect its BDA-2 binding | binding after deletion of BH3 [10]: did not significantly affect its BDA-2 binding | binding to ΔBH4 Bcl2 [11]: failed to bind | Ki (Bcl2; fluorescent Bak peptide, WT Bcl2): 3.3 ± 0.73 nM | inhibitory constant (Ki) value (Bcl2; purified Bcl2 protein, BH4 domain): nanomolar level | binding after deletion of BH2 [12]: did not significantly affect its BDA-2 binding | binding to single-site Bcl2 mutants [13]: did not significantly reduce Bcl2's ability to bind BDA-2 | Bcl2 expression level (H460 cells [14]): did not significantly affect Bcl2 expression level | Bcl2 immunofluorescence with Bcl2/BH3-domain specific antibody (H460 cells [14]): enhanced significantly | mitochondrial dysfunction and apoptosis (H460 cells [14]; MitoSOX red staining, Cyt c release, PARP cleavage): resulted in mitochondrial dysfunction | Bax binding to 6A7 antibody induced by compound-treated Bcl2 (purified recombinant Bax; Bcl2 treated 1 h, then Bax 2 h): enhanced the ability of Bax to bind to 6A7 antibody | Bax activation by WT Bcl2 in the presence of compound (purified recombinant Bax; WT Bcl2): can activate Bax via 6A7 conformational change | direct activation of Bax (purified recombinant Bax; without Bcl2): not a direct Bax activator | Bax activation by ΔBH3 mutant Bcl2 in the presence of compound (purified recombinant Bax; ΔBH3 mutant Bcl2): not
